Where two headings read alike, the source gives them in different places.
Tests used:
[1] = system: thymidylate synthase (TS); assay: Luciferase assay in stably transfected H630-C6 cells (pG3E1-2TBE-Neo); assay type: cell-based, human
Method: FIGS. 3a-3j. RLU production in H630-C6 cells in response to TS inhibitors. H630-C6 cells were evaluated for luciferase activity in response to treatment with the indicated compounds. The cells were exposed to the compounds at the indicated concentrations for 18 hr and luciferase assays were then performed according to the manufacturer's instructions. The mean values of triplicates or quadruplicates are shown along with the standard derivations.
This example describes the stable transfection of cells with the DNA construct of the present invention. To facilitate selection of stable transformants, we added a neomycin-resistance gene to the pG3E1-2TBE (FIG. 1) to generate a new plasmid termed pG3E1-2TBE-Neo as follows. For stable transfection, pG3E1-2TBE-Neo was linearized at the ampicillin resistance gene with Ase I and was introduced into H630 cells as described above. At 24 hrs post-transfection, the cells were exposed to 400 μg/ml of G418 for two weeks. Individual clones were picked at that time and screened for their ability to induce luciferase in response to treatment with 5-FU, a known TS inhibitor. Following selection with G418 and evaluation for changes in luciferase activity after exposure of the cells to 5-FU, the cloned subline H630/pG3E1-2TBE-Neo-L1-2-C6 (H630-C6) was chosen for further study.
The stably transfected H630-C6 cell line was maintained in RPMI 1640 plus 10% dialyzed FBS and 400 μg/ml of geneticin (G418). For luciferase assays, 2×10^4 cells were seeded in each well of a 24-well plate in RPMI 1640 medium plus 10% FBS without G418 and were allowed to attach at least six hr, followed by drug exposure overnight (approximately 18 hr). The cells were then washed with PBS (137 mM NaCl, 2.7 mM KCl, 4.3 mM Na2HPO4, 1.4 mM KH2PO4, pH 7.4), lysed with Passive Lysis Buffer (Promega, Madison) and assayed for luciferase activity using the Luciferase Assay System (Promega, Madison, Wis.) according to the manufacturer's instructions. Relative light units (RLU) were measured with a Lumat LB 9501 luminometer (EG & G Berthold, Wildbad, Germany).
To test H630-C6 as a tool to identify TS modulators three different classes of compounds, i.e., specific or predominantly specific TS inhibitors, agents that inhibit folate pathways or inhibit TS as well as having other targets, and agents that act through TS unrelated sites of action were evaluated for their ability to induce changes in luciferase activity.

[2] = system: thymidylate synthase (TS); assay: Evaluation of TS expression by Western blotting in H630-C6 cells; assay type: cell-based, human; settings: H630-C6 cells, 18 hr treatment
Method: FIGS. 4a and 4b. Evaluation of TS expression by Western blotting. […] The cells were harvested for Western blots.
This example describes the relationship between TS levels and luciferase production by various known TS inhibitors. Western blotting was performed as previously described (Dolnick and Black, 1996). Briefly, H630-C6 cells were washed with PBS and extracted with RIPA buffer. 10 μg of total protein was resolved by electrophoresis in a 10% SDS-PAGE and was blotted onto a PVDF membrane (Immobilon-P, Millipore, Bedford, Mass.). The membrane was hybridized with rabbit polyclonal antibody against TS (a gift from Dr. Edward Chu, VA Cancer Center, Yale University, West Haven, Conn.) diluted in SuperBlock Blocking Buffer (Pierce, Rockford, Ill.) plus 0.25% Tween 20 for one hour and hybridized with HRP-linked anti-rabbit secondary antibody (Jackson Laboratories) for an additional one hour. The membrane was detected with SuperSignal West Dura Extended Duration Substrate (Pierce, Rockford, Ill.) and was visualized by exposing the blot to Kodak XAR-5 film. […] The resulting signal was detected as described above.
The induction of luciferase activity depends upon the ability to reduce the amount of endogenous TS bound to the TBEs in the recombinant luciferase transcripts. Dissociation of TS from the luciferase reporter mRNA is expected to be accompanied by the removal of TS from TBEs located in other mRNAs as well, such as endogenous TS mRNA. Therefore, an increase in TS is expected to accompany the increase in luciferase. To verify whether a translational mechanism is involved we evaluated the levels of TS from cells treated with the compounds described above by Western blotting.

[3] = system: thymidylate synthase (TS); assay: Luciferase assay in H630 cells transiently transfected with pG3E1-2TBE; assay type: cell-based, human; settings: 5-FU 10 μM for 24 hr; H630 cells transfected with pG3E1-2TBE
Method: FIGS. 2a-2c. Activity of the EGR-I promoter and TBEs in pGL3-basic plasmid. FIG. 2a—the EGR-I promoter was added upstream of the luciferase reporter gene of pGL3-basic plasmid as described in Example 1. The resultant construct pG3E1 was transfected into H630 cells and the luciferase assay was performed 24 hr later. Control: mock transfection; pG3E1: 5 μg of pG3E1 plasmid DNA per 2×10^6 cells was used for transfection. RLU: relative light units. In FIGS. 2b and 2c, TS-binding elements were synthesized and added into pG3E1. The pG3E1-2TBE (5 μg) was transfected into six replicate aliquots of H630 cells (2×10^6) and plated separately. After 24 hr, three of transfected samples were treated with 5-FU (10 μM) for an additional 24 hr (FIG. 2c), the cells were then processed for the luciferase assay according to the manufacturer's instructions. Control: mock transfection; pG3E1: transfected with pG3E1; pG3E1+T: transfected with pG3E1-2TBE only (FIG. 2b). P+T+FU: transfected with pG3E1-2TBE and 24 hr following transfection treated with 5-FU (FIG. 2c). Data are the average of triplicate experiments±S.D.
This example describes the transient transfection of cells with the construct of the present invention. […]

[4] = system: thymidylate synthase (TS); assay: Multiwell luciferase assay in RKO colon tumor cell lines containing pG3E1-2TBE-Neo; settings: for % C (effect relative to control without 5-FU), RKO clone 1 / % C (effect relative to control without 5-FU), RKO clone 4 / % C (effect relative to control without 5-FU), RKO clone 7 / RLU RKO clone 1 / RLU RKO clone 4 / RLU RKO clone 7: approximately 18 hr
[5] = system: thymidylate synthase (TS); assay: Down-regulation of TS in H630 cells treated with acyl-homoserine lactones (Western blotting); assay type: cell-based, human; settings: overnight (approximately 16 hours)
Text: FIG. 6. A representation of the ability of acyl homoserine lactones to down-regulate TS in H630 cells.
The signaling molecules produced by the rTS signaling pathway cause a decrease in the amount of TS found in cells. These signaling molecules can simulate the effects of the compound 3-oxo-hexanoyl homoserine lactone in activating the receptor for this compound when it is present in a recombinant bacteria. […] This hypothesis was validated by the results of an experiment portrayed in FIG. 6. Accordingly, the down-regulation of TS in H630 (human colon cancer) cells treated with acyl-homoserine lactones was tested. Cells growing in RPMI 1640 culture medium, supplemented with 10% dialyzed fetal bovine serum at 37° C. in an atmosphere of 95:5 air:CO2. The compounds with the structures shown were added to the cells and allowed to incubate overnight (approximately 16 hours). The cells were extracted and TS measured by Western blotting as described. The compounds from top to bottom are: (1) 3-hydroxy butanoyl homoserine lactone, (2) butanoyl homoserine lactone; (3) 3-oxo-hexanoyl homoserine lactone; (4) d, 1-hexanoyl homoserine lactone, and (5) 1-homoserine lactone. Tubulin is shown as a loading standard.

With `CN(Cc1cnc2nc(N)nc(N)c2n1)c1ccc(C(=O)N[C@@H](CCC(=O)O)C(=O)O)cc1` [MTX, methotrexate] the “change in luciferase activity (RLU), in words” value (“change in luciferase activity” below) [1] was “increases in luciferase that were comparable”, the “elevation of luciferase activity” value [1] was “approximately two-fold” and the “TS protein level by Western blotting” value [2] was “elevated TS protein levels”.

With `Nc1nc2c([nH]c(=S)n2[C@@H]2O[C@H](CO)[C@@H](O)[C@H]2O)c(=O)[nH]1` [TG, 8-thioguanosine] the “change in luciferase activity” value ([1]; H630-C6 cells, 18 hr exposure) was “no increase” and the “TS protein level by Western blotting” value [2] was “did not alter TS protein levels”.

`O=c1[nH]c(=O)n([C@H]2C[C@H](O)[C@@H](CO)O2)cc1F` [FUdR, 5-fluoro-2′-deoxyuridine] was tested, and the “concentration at which the increase in RLU output plateaued” value (“concentration at which the increase” below) ([1]; H630-C6 cells, 18 hr exposure) was 5 nM and the “mobility of TS in SDS-PAGE / Western blot” value [2] was “altered the mobility of TS”.

In the case of `Cc1nc2ccc(CN(C)c3ccc(C(=O)N[C@@H](CCC(=O)O)C(=O)O)s3)cc2c(=O)[nH]1` [ZD1694, Raltitrexed], the “elevation of luciferase activity” value ([1]; 100 μM, H630-C6 cells, 18 hr) is reported as “approximately two-fold” and the “change in luciferase activity” value ([1]; H630-C6 cells, 18 hr exposure) is reported as “increases in luciferase that were comparable”.

In the case of `O=c1[nH]cc(F)c(=O)[nH]1` [5-FU, 5-Fluorouracil], the “increase in the RLU compared with untreated transfectants” value [3] is reported as 33±13.8%, the “concentration at which the increase” value ([1]; H630-C6 cells, 18 hr exposure) is reported as 50000 nM and the “mobility of TS in SDS-PAGE / Western blot” value [2] is reported as “altered the mobility of TS”. The “lowest concentration at which changes in RLU can be detected” value ([4]; RKO clones, Table 1) was 0.1 µM, the “% C (effect relative to control without 5-FU), RKO clone 1” value ([4]; [5-FU] 0.1 μM) was 117% and the “% C (effect relative to control without 5-FU), RKO clone 4” value ([4]; [5-FU] 0.1 μM) was 121%. For the same molecule, the “% C (effect relative to control without 5-FU), RKO clone 7” value ([4]; [5-FU] 0.1 μM) was 120%, the “RLU RKO clone 1” value ([4]; [5-FU] 0.1 μM) was 1137 RLU and the “RLU RKO clone 4” value ([4]; [5-FU] 0.1 μM) was 1078 RLU. The “RLU RKO clone 7” value ([4]; [5-FU] 0.1 μM) was 799 RLU, the “% C (effect relative to control without 5-FU), RKO clone 1” value ([4]; [5-FU] 0.5 μM) was 135% and the “% C (effect relative to control without 5-FU), RKO clone 4” value ([4]; [5-FU] 0.5 μM) was 112%. The “% C (effect relative to control without 5-FU), RKO clone 7” value ([4]; [5-FU] 0.5 μM) was 157%, the “RLU RKO clone 1” value ([4]; [5-FU] 0.5 μM) was 1314 RLU and the “RLU RKO clone 4” value ([4]; [5-FU] 0.5 μM) was 999 RLU. For the same molecule, the “RLU RKO clone 7” value ([4]; [5-FU] 0.5 μM) was 1043 RLU, the “% C (effect relative to control without 5-FU), RKO clone 1” value ([4]; [5-FU] 2.0 μM) was 140% and the “% C (effect relative to control without 5-FU), RKO clone 4” value ([4]; [5-FU] 2.0 μM) was 137%. The “% C (effect relative to control without 5-FU), RKO clone 7” value ([4]; [5-FU] 2.0 μM) was 168%, the “RLU RKO clone 1” value ([4]; [5-FU] 2.0 μM) was 1356 RLU and the “RLU RKO clone 4” value ([4]; [5-FU] 2.0 μM) was 1214 RLU. The “RLU RKO clone 7” value ([4]; [5-FU] 2.0 μM) was 1119 RLU, the “% C (effect relative to control without 5-FU), RKO clone 1” value ([4]; [5-FU] 10 μM) was 179% and the “% C (effect relative to control without 5-FU), RKO clone 4” value ([4]; [5-FU] 10 μM) was 172%. The “% C (effect relative to control without 5-FU), RKO clone 7” value ([4]; [5-FU] 10 μM) was 243%, the “RLU RKO clone 1” value ([4]; [5-FU] 10 μM) was 1738 RLU and the “RLU RKO clone 4” value ([4]; [5-FU] 10 μM) was 1527 RLU. For the same molecule, the “RLU RKO clone 7” value ([4]; [5-FU] 10 μM) was 1614 RLU, the “% C (effect relative to control without 5-FU), RKO clone 1” value ([4]; [5-FU] 50 μM) was 148% and the “% C (effect relative to control without 5-FU), RKO clone 4” value ([4]; [5-FU] 50 μM) was 175%. For the same molecule, the “% C (effect relative to control without 5-FU), RKO clone 7” value ([4]; [5-FU] 50 μM) was 156%, the “RLU RKO clone 1” value ([4]; [5-FU] 50 μM) was 1438 RLU and the “RLU RKO clone 4” value ([4]; [5-FU] 50 μM) was 1559 RLU. For the same molecule, the “RLU RKO clone 7” value ([4]; [5-FU] 50 μM) was 1560 RLU.

For `CN[C@@H]1[C@@H](O)[C@@H](O[C@@H]2[C@@H](O)[C@H](O[C@H]3O[C@H]([C@@H](C)O)[C@@H](O)[C@H](O)[C@H]3N)[C@@H](N)C[C@H]2N)OC[C@]1(C)O` [G418, geneticin], the “TS protein level by Western blotting” value [2] was “inactive”.

For `CCCCCC(=O)N[C@H]1CCOC1=O` [1-hexanoyl compound], the “activity in down-regulating TS relative to the racemic mixture (d, 1)” value [5] was “twice as active” and the “activity of the enantiomers, concluded from the comparison with the racemic mixture” value [5] was “active”.

`CCCCCC(=O)NC1CCOC1=O` (single isomer, unassigned) [d-enantiomer] was tested, and the “activity of the enantiomers, concluded from the comparison with the racemic mixture” value [5] was “inactive”.

For `O=c1[nH]c(=O)n([C@@H]2O[C@H](CO)[C@@H](O)[C@H]2O)cc1F` [FUrd, 5-fluorouridine], the “concentration at which the increase” value ([1]; H630-C6 cells, 18 hr exposure) was 2500 nM and the “mobility of TS in SDS-PAGE / Western blot” value [2] was “altered the mobility of TS”.

`Nc1ncn([C@@H]2O[C@H](CO)[C@@H](O)[C@H]2O)c(=O)n1` [AC, 5-azacytidine] was tested, and the “change in luciferase activity” value ([1]; H630-C6 cells, 18 hr exposure) was “no increase” and the “TS protein level by Western blotting” value [2] was “did not alter TS protein levels”.

For `O=c1[nH]c(=O)n([C@H]2C[C@H](O)[C@@H](CO)O2)cc1C(F)(F)F` [TFT, trifluorothymidine], the “concentration at which the increase” value ([1]; H630-C6 cells, 18 hr exposure) was 100 nM.

Source: patent US20040161781A1, “Compositions and methods for identifying thymidylate synthase modulators” (priority 2002, published 2004)
